# Values of other authors as cited in PMC10623564, “Ruthenium-Based Photoactivated Chemotherapy” (Journal of the American Chemical Society, 2023).
# Read-outs that look alike come from different tables or passages of the source. Marks after values point to notes of the source that are not given here.
# How the values were obtained:
# [1] = for φPS, mtep photosubstitution: in acetonitrile (521 nm printed for 23^+); for φPS, photosubstitution of one axial MeCN by chloride: 298 K, in CH2Cl2
# [2] = not given; remark: listed apart in the source
# [3] = for φΔ, singlet oxygen (1O2) generation quantum yield: in CD3OD solution
# [4] = tested on: CRMM1 conjunctival melanoma cancer cell line; parameters: method as in PMID 35774173; details: CRMM1 cells, green light
# [5] = tested on: CRMM2 conjunctival melanoma cancer cell line; parameters: method as in PMID 35774173; details: CRMM2 cells, green light
# [6] = tested on: PC3Pro4 prostate cancer cell lines; parameters: method as in PMID 35774173; details: PC3Pro4 cells, green light
# [7] = tested on: orthotopic CRMM1 eye tumor model; parameters: method as in PMID 35774173
# [8] = tested on: PC3Pro4 ectopic prostate zebrafish tumor model; parameters: method as in PMID 35774173; details: compound in water or intravenous injection, green light
# CYP3A4 = tested on: CYP3A4; parameters: method as in PMID 34110801; details: Figure 8c, read-out: IC50, CYP3A4 protein activity
# NAMPT = tested on: NAMPT; parameters: method as in PMID 28666065
# A431 skin cancer cells = tested on: A431 skin cancer cells; parameters: method as in PMID 28666065
# [9] = conditions not given
# cancer cells = tested on: cancer cells; parameters: method as in PMID 30155140; details: photosubstitution of the axial dmso ligand
# [10] = λexc 450 nm, in water, room temperature
# [11] = λexc 521 nm, in acetonitrile, room temperature
# [12] = λexc 450 nm, in acetonitrile, room temperature
# [13] = λexc not given, in water, room temperature
compound,measurement,setting,value
"CC#N.CC(=O)C=C(C)[O][Ru+].c1ccc(-c2cccc(-c3ccccn3)n2)nc1 [1^+, [Ru(tpy)(acac)(MeCN)]^+]","φPS, quantum yield for photosubstitution",[1]; [10],0.014 (450) ^j
same,toxicity in the dark,dark,quite toxic in the dark
"Cc1cccc(-c2cccc(C)n2)n1.[Ru+2].c1ccc(-c2ccccn2)nc1.c1ccc(-c2ccccn2)nc1 [2^2+, [Ru(bpy)2(dmbpy)]^2+]","φPS, quantum yield for photosubstitution","[1]; λexc 413 nm, in acetonitrile, room temperature",0.05 (413) ^f
"Oc1cccc(-c2cccc(O)n2)n1.[Ru+2].c1ccc(-c2ccccn2)nc1.c1ccc(-c2ccccn2)nc1 [3^2+, [Ru(bpy)2(6,6′-dOHbpy)]^2+]","φPS, quantum yield for photosubstitution","[1]; λexc 450 nm, in aqueous solution at pH 5.0",0.0058 (450) ^g
same,"φPS, quantum yield for photosubstitution","[1]; λexc 450 nm, in aqueous solution at pH 7.5",0.0012 (450) ^h
same,λmax^MLCT,[2]; Table 1 row with φPS in aqueous solution at pH 5.0,462 nm
same,λmax^MLCT,[2]; Table 1 row with φPS in aqueous solution at pH 7.5,493 nm
same,"φΔ, singlet oxygen (1O2) generation quantum yield",[3]; Table 1 row with φPS at pH 5.0,0.041 ^i
same,"φΔ, singlet oxygen (1O2) generation quantum yield",[3]; Table 1 row with φPS at pH 7.5,0.18 ^i
"CSCc1ccccn1.[Ru+2].c1ccc(-c2ccccn2)nc1.c1ccc(-c2ccnc3c2ccc2c(-c4ccccc4)ccnc23)cc1 [5^2+, [Ru(dpp)(bpy)(mtmp)]^2+]",photosubstitution quantum yield,[1]; in deaerated acetonitrile,0.11
same,"φPS, quantum yield for photosubstitution",[1]; [11],0.111 (521) ^f
same,PI value (photoindex),[4],8.5
same,PI value (photoindex),[5],8.8
same,PI value (photoindex),[6],> 31
same,activation in vivo,"[7]; four consecutive PACT treatments of 90 min irradiation (114 J/cm^2) each, 520 nm",clear activation
same,antitumor activity in vivo,"[7]; orthotopic eye tumor model, retro-orbital injection, green light (520 nm, 114 J/cm^2)",good antitumor activity
same,antitumor activity in vivo,[8],no antitumor activity
"N.N.[Ru+2].c1ccc(-c2ccccn2)nc1.c1ccc(-c2ccccn2)nc1 [8^2+, [Ru(bpy)2(NH3)2]^2+]","φPS, quantum yield for photosubstitution","[1]; λexc 350 nm, in water, room temperature",0.024 (350) ^j
"CC(C)(C)OC(=O)N[C@H](CSCCC(=O)NCc1cccnc1)Cc1ccccc1.Cc1cccc(-c2cccc(C)n2)n1.[Ru+2].c1ccc(-c2cccc(-c3ccccn3)n2)nc1 [11^2+, [Ru(tpy)(dmbpy)(R-py)]^2+]","φPS, quantum yield for photosubstitution","[1]; λexc 500 nm, in acetonitrile, room temperature",0.31 (500) ^f
same,"φPS, quantum yield for photosubstitution","[1]; λexc 500 nm, in water, room temperature",0.15 (500) ^j
same,IC50,CYP3A4; after light activation,2200 nM
same,IC50,CYP3A4; in the dark,900 nM
"CC(C)(C)c1ccc(S(=O)(=O)NCc2ccc(C(=O)Nc3cccnc3)cc2)cc1.[Ru+2].c1ccc(-c2cccc(-c3ccccn3)n2)nc1.c1ccc2nc(-c3ccc4ccccc4n3)ccc2c1 [12^2+, [Ru(tpy)(biq)(STF31)]^2+]","φPS, quantum yield for photosubstitution","[1]; λexc 625 nm, in water, room temperature",0.013 (625) ^j
same,λmax (absorption maximum),[2]; Figure 6 bottom,531 nm
same,"εexc, molar absorption coefficient at the excitation wavelength",[2]; λexc = 625 nm (red light),379 M^–1·cm^–1
same,loss of potency on caging relative to STF31,"NAMPT; NAMPT, dark",18 times
same,IC50,"NAMPT; caged compound in the dark, read-out: IC50,dark, NAMPT inhibition",4800 nM
same,PI value (photoindex),"A431 skin cancer cells; A431 cells, normoxia (21% O2)",3.3
same,EC50,"A431 skin cancer cells; A431 skin cancer cells, normoxia, dark",23600 nM
same,PI value (photoindex),A431 skin cancer cells; hypoxic A431 cells (1% O2),3.6
"CC#N.CC#N.[Ru+2].c1ccc(-c2ccccn2)nc1.c1ccc2cc3nc4c5cccnc5c5ncccc5c4nc3cc2c1 [17^2+, [Ru(bpy)(dppn)(MeCN)2]^2+]","φPS, quantum yield for photosubstitution","[1]; λexc 400 nm, in water, room temperature",0.002 (400) ^j
"CSCCc1ccccn1.[Ru+][c]1ccccc1-c1ccccn1.c1ccc(-c2ccccn2)nc1 [23^+, [Ru(bpy)(phpy)(mtep)]^+]","φPS, mtep photosubstitution",[1],0.00035
same,"φPS, quantum yield for photosubstitution",[1]; [11],0.00035 (521) ^f
"CC(C)(C)c1ccc(S(=O)(=O)NCc2ccc(C(=O)Nc3cccnc3)cc2)cc1 [STF31, reference compound]",IC50,"NAMPT; uncaged inhibitor, read-out: IC50, NAMPT inhibition",250 nM
"CC#N.CC#N.[Ru+2].c1ccc(-c2ccccn2)nc1.c1ccc(-c2ccccn2)nc1 [[Ru(bpy)2(MeCN)2]^2+, reference compound]","φPS, quantum yield for photosubstitution",[1]; [10],0.22 (450) ^j
same,"φPS, quantum yield for photosubstitution","[1]; λexc printed as 40098 nm, in water, room temperature",0.21 (40098) ^j
"CSCCc1ccccn1.[Ru+2].c1ccc(-c2ccccn2)nc1.c1ccc(-c2ccccn2)nc1 [[Ru(bpy)2(mtep)]^2+, reference compound]","φPS, mtep photosubstitution",[1],0.0030
"[Ru+2].c1ccc(-c2ccccn2)nc1.c1ccc(-c2ccccn2)nc1.c1ccc(-c2ccccn2)nc1 [[Ru(bpy)3]^2+, reference compound]","φPS, quantum yield for photosubstitution","[1]; λexc 436 nm, at 363 K in 0.1 M aqueous HCl",0.00053 (436) ^e
same,"φPS, quantum yield for photosubstitution",[1]; [12],0 (450) ^f
same,φP (phosphorescence),[9],≈ 0.02
same,φΔ (generator of 1O2),[3]; conditions not given,≈ 0.73
"CC#N.CC#N.CC#N.[Ru+2].c1ccc(-c2cccc(-c3ccccn3)n2)nc1 [[Ru(tpy)(MeCN)3]^2+, reference compound]","φPS, photosubstitution of one axial MeCN by chloride",[1]; 436 nm,0.040
same,"φPS, photosubstitution of one axial MeCN by chloride",[1]; 480 nm,0.041
"CSCCO.[Ru+2].c1ccc(-c2cccc(-c3ccccn3)n2)nc1.c1ccc(-c2ccccn2)nc1 [[Ru(tpy)(bpy)(Hmte)]^2+, reference compound]","φPS, quantum yield for photosubstitution","[1]; λexc 452 nm, in water, room temperature",0.022 (452) ^j
"O.[Ru+2].c1ccc(-c2cccc(-c3ccccn3)n2)nc1.c1ccc(-c2ccccn2)nc1 [[Ru(tpy)(bpy)(OH2)]^2+, reference compound]",toxicity of the complex by itself,,poorly toxic
"CS(C)=O.[Ru+2].c1ccc(-c2cccc(-c3ccccn3)n2)nc1.c1ccc(-c2ccccn2)nc1 [[Ru(tpy)(bpy)(dmso)]^2+, reference compound]",quantum yield of photosubstitution of dmso by acetonitrile,[1]; at 450 nm,0.016
same,"φPS, quantum yield for photosubstitution",[1]; [12],0.016 (450) ^f
"Cc1cccc(-c2cccc(C)n2)n1.[Cl-].[Cl][Ru+].c1ccc(-c2cccc(-c3ccccn3)n2)nc1 [[Ru(try)(dmbpy)Cl]Cl, [Ru(tpy)(dmbpy)Cl]Cl, reference compound]",IC50,CYP3A4,50000 nM
"CP(C)C.[Ru+2].c1c[nH]cn1.c1ccc(-c2ccccn2)nc1.c1ccc(-c2ccccn2)nc1 [cis-9^2+, cis-[Ru(bpy)2(PMe3)(ImH)]^2+]","φPS, quantum yield for photosubstitution",[1]; [13],0.10 ^j
same,absorption maximum,[2],432 nm
CC(C)(C)OC(=O)N[C@H](CSCCC(=O)NCc1cccnc1)Cc1ccccc1 [compound 24],IC50,CYP3A4,1500 nM
"CP(C)C.[Ru+2].c1c[nH]cn1.c1ccc(-c2ccccn2)nc1.c1ccc(-c2ccccn2)nc1 [trans-9^2+, trans-[Ru(bpy)2(PMe3)(ImH)]^2+]","φPS, quantum yield for photosubstitution",[1]; [13],0.23 ^j
same,absorption maximum,[2],464 nm
[Ru(bapbpy)(dmso)(OH2)]^+ [10^2+],"φPS, quantum yield for photosubstitution",[1]; [10],0.003 (450) ^j
same,effect of light irradiation performed in cancer cells,cancer cells,led to cell death
